Test results published in patent US9255118B2, “Light induced drug release” (UNIVERSITEIT LEIDEN, priority 2010, dated 2016).
Blank lines part the entries; values can stand above or below the molecule they belong to.

What was measured:
[1] = background statement; cited from earlier work
[2] = Complex stability at human body temperature in the dark (1H NMR in D2O, 37° C.); format: physicochemical; conditions: for Conversion of Ru compounds into their aqua complexes: +37° C.
Description: D2O (0.80 mL) was added to each of the NMR tubes and ^1H NMR spectra were taken. The NMR tubes were put into closed pressure tubes and kept in the dark at 37° C. to check the stability of the Ru—Cl and Ru—S bond. ^1H NMR spectra of each of the tubes were taken after 4 hours, 1 day, 3 days and 3 weeks. The NMR tubes were kept in an ice bath during transport in order to temporarily freeze the reaction. In the case of [Ru(terpy)(bpy)(Cl)](Cl), an equilibrium had been reached after four hours, characterized by 10% of [Ru(terpy)(bpy)(Cl)](Cl) and 90% of [Ru(terpy)(bpy)(H2O)](Cl)2.
The stability of the Ru—S bond was measured at human body temperature and in the dark. To do so, compound [Ru(tpy)(apy)Cl]Cl, and [Ru(tpy)(apy)(AMet)]Cl2, (compound [13](Cl)2) were dissolved in D2O and kept in the dark at 37° C. The release of the aqua species was measured by ^1H NMR after 4 hours, 1 days, and 3 weeks. […] The stability of the Ru—S bond depends on the nature of the polypyridyl ligands (see Example 2), but in general it is much higher than that of the Ru—Cl bond.

[3] = Light-induced cleavage of the Ru-S bond in aqueous solution; format: physicochemical
HepG2 cancer cells = experiment: WST-1 cell viability test in the dark; format: cell-based; conditions: 1.7 mM, 30 min in the dark, WST-1 normalized to protein content
Description: HepG2 cancer cells were grown in RPMI 1640 medium containing (−) L-glutamine at 37° C. and in an atmosphere of […] and 5% CO2. […] In this experiment, the difference in water solubility between the chlorido and thioether complexes might also play a role, as uptake might be different for both compounds.

[4] = 37° C., equilibrium after four hours

- Conversion of Ru compounds into their aqua complexes ([2]; 3 weeks): 46%
- Conversion of Ru compounds into their aqua complexes ([2]; 4 h): no sign of cleavage
- Conversion of Ru compounds into their aqua complexes ([2]; 4 h, listed as [Ru(tpy)(apy)(AMet)](Cl)2): 0%
- Conversion of Ru compounds into their aqua complexes ([2]; 1 day): 21%
- photochemical cleavage of the Ru-S bond ([3]; visible light, D2O, 1H NMR and thin layer chromatography): photochemically labile
Molecule: [Ru(tpy)(apy)(AMet)]Cl2 [Compound [13](Cl)2]

- photosubstitution of the monodentate sulfur ligand ([3]; white light, aqueous solution): photosubstituted by an aqua ligand
Molecule: [Ru(terpy)(bpy)(mte)](BF4)2 [Compound [9](BF4)2]

- aqua complex [Ru(terpy)(bpy)(H2O)](Cl)2 at equilibrium [2, 4]: 90%
- starting chlorido complex at equilibrium [2, 4]: 10%
Molecule: [Ru(terpy)(bpy)(Cl)](Cl)
- cell survival reduced by (HepG2 cancer cells): 49%

The remaining lines, values behind:

Molecule: [Cl-].[Cl-].[Ru+2].c1ccc(N=Nc2ccccn2)cc1.c1ccc(N=Nc2ccccn2)cc1 [α-[Ru(azpy)2(Cl)2]]
- solubility in water [1]: poorly soluble in water

Molecule: [Ru(terpy)(bpy)(D-biotin)](Cl)2 [Compound [7](Cl)2]
- cell survival reduced by (HepG2 cancer cells): not reduced

Molecule: [Ru(terpy)(apy)(Cl)](Cl) [[Ru(tpy)(apy)(Cl)](Cl)]
- Conversion of Ru compounds into their aqua complexes ([2]; 3 weeks): 48%
- Conversion of Ru compounds into their aqua complexes ([2]; 4 h): 48%
- Conversion of Ru compounds into their aqua complexes ([2]; 1 day): 48%

Molecule: [Cl-].[Cl-].[Cl-].[Ru+3].c1ccc(-c2cccc(-c3ccccn3)n2)nc1 [mer-[Ru(terpy)(Cl)3]]
- solubility in water [1]: poorly soluble in water
